Patent publication US5147878A, “Aminoalkoxyphenyl derivatives, process of preparation and compositions containing the same” (Sanofi, priority 1986, dated 1992)
Counter-ions that a name gives are not always drawn.

System: isolated rat aorta
Experiment: Calcium inhibitory properties: contractile response to potassium-induced depolarization on isolated rat aorta
Parameters: species or system isolated organ, male Wistar rats
Details: for activity at 1 µM / activity at 0.1 µM / activity at 0.01 µM / activity at 0.001 µM: Rattus norvegicus, 1 h, read-out: % of the maximum contractional effect; for activity at 0.001 µM: 10^-9 M; for % of the maximum contractional effect: 60 min
Source text: It is well established that the depolarization of a smooth muscle membrane by potassium renders the latter permeable to extracellular calcium and induces muscle contraction. Consequently, the measurement of the inhibition of the contractile response to depolarization by potassium, or the measurement of a relaxation of the tonic contraction on potassium depolarization, can represent an evaluation of the power of a compound as an inhibitor of the membrane permeability to Ca^++ ions. The technique used was as follows: The aorta was removed from male Wistar rats weighing approximately 300 g, and cut into strips approximately 40 mm long and 3 mm wide. These fragments were placed in a 25-ml isolated organ trough containing a modified Krebs-bicarbonate solution (112 mM NaCl; 5 mM KCl; 25 mM NaHCO3; 1 mM KH2 PO4; 1.2 mM MgSO4; 2.5 mM CaCl2; 11.5 mM glucose, distilled water to 1000 ml) through which a stream of 5-7% carbon dioxide in oxygen was passed, and maintained at 37° C. The preparation was connected to a force microsensor and the contractile response recorded after amplification on a recorder. A tension of 2 g was applied to the preparation. This tension was maintained for 60 minutes in the modified Krebs-bicarbonate solution, and contractions were then induced by replacing the Krebs-bicarbonate solution by a potassium-Krebs solution (17 mM NaCl; 100 mM KCl; 25 mM NaHCO3; 1 mM KH2 PO4; 1.2 mM MgSO4; 2.5 mM CaCl2; 11.5 mM glucose; distilled water to 1000 ml). When the contractile response of the preparation had become reproducible, a given amount of a compound of the invention was introduced into the bath. Sixty minutes later, a new spasm was induced by potassium depolarization. The results obtained on the aorta used in the experiment were then expressed as a percentage of the maximum contractional effect before incubation with the test substance. By way of examples, the results which follow were obtained, the compounds of formula (1) being in the form of the base, hydrochloride or oxalate.

[1] = head printed "10^-" (exponent missing; first of three columns before 10^-6 M)

| Compound | activity at 1 µM (10^-6 M) | activity at 0.1 µM (10^-7 M) | activity at 0.01 µM (10^-8 M) | further results |
| --- | --- | --- | --- | --- |
| COc1ccc(CCN(C)CCCOc2ccc(S(=O)(=O)c3ccccc3C(C)C)cc2)cc1OC [Ex. 114, 2-isopropyl-1-[4-{3-[N-methyl-N-(3,4-dimethoxy-β-phenethyl)amino]propyloxy}benzenesulphonyl]benzene acid oxalate] | 3.7% | 21.7% | 59.3% | activity at 0.001 µM: 93.3% |
| CCc1cn2ccccc2c1S(=O)(=O)c1ccc(OCCCNC(C)(C)C)cc1 [Ex. 3, 2-ethyl-1-{4-[3-(tert-butylamino)propyloxy]benzenesulphonyl}indolizine hydrochloride] | 30.7% |  |  |  |
| CCc1cn2ccccc2c1S(=O)(=O)c1ccc(OCCCn2ccnc2)cc1 [Ex. 38, 2-Ethyl-1-{4-[3-(1-imidazolyl)propyloxy]benzenesulphonyl}indolizine] |  | 85.9% |  |  |
| CCCCN(CCCC)CCCOc1ccc(S(=O)(=O)c2c(CC)sc3c2CN(Cc2ccccc2Cl)CC3)cc1 [Ex. 121, 5-(2-chloro-benzyl)-2-ethyl-3-{4-[3-(di-n-butylamino)propyloxy]benzenesulphonyl}-4,5,6,7-tetrahydro-thieno[3,2-c]pyridine dioxalate] | 66.2% | 77.5% | 85.7% |  |
| COc1ccc(CCN(C)CCCOc2ccc(S(=O)(=O)c3cn[nH]c3C(C)C)cc2)cc1OC [Ex. 100, 4-[4-{3-[N-methyl-N-(3,4-dimethoxy-β-phenethyl)amino]propyloxy}benzenesulphonyl]-5-isopropyl-pyrazole acid oxalate] | 62.5% | 87.6% |  | % of the maximum contractional effect [1]: 15.1% |
| COc1ccc(CN(C)CCCOc2ccc(S(=O)(=O)c3c(C(C)C)n(C)c4ccccc34)cc2)cc1OC [Ex. 111, 1-Methyl-2-isopropyl-3-[4-{3-[N-methyl-N-(3,4-dimethoxy-benzyl)amino]propyloxy}benzenesulphonyl]indole acid oxalate] |  | 11.8% | 25% | activity at 0.001 µM: 81.8% |
| CCCCN(CCCC)CCCOc1ccc(S(=O)(=O)c2ccccc2C(C)C)cc1 [Ex. 115, 2-Isopropyl-1-{4-[3-(di-n-butylamino)propyloxy]benzenesulphonyl}benzene acid oxalate] |  | 43.2% |  | activity at 0.001 µM: 89.1% |
| COc1ccc(CCN(C)CCCOc2ccc(Sc3cnnc4ccccc34)cc2)cc1OC [Ex. 80, 4-[4-{3-[N-methyl-N-(3,4-dimethoxy-β-phenethyl)amino]propyloxy}phenylthio]cinnoline oxalate] | 64.2% | 85.4% |  | % of the maximum contractional effect [1]: 3.0% |
| CCCCN(CCCC)CCCOc1ccc(S(=O)(=O)c2ncsc2-c2ccccc2)cc1 [Ex. 124, 4-{4-[3-(di-n-butylamino)propyloxy]benzenesulphonyl}-5-phenyl-thiazole acid oxalate] | 13.7% | 66.7% | 90.6% |  |
| CCc1ccccc1S(=O)(=O)c1ccc(OCCCNC(C)(C)C)cc1 [Ex. 119, 2-ethyl-1-[4-{3-(tert-butylamino)propyloxy}benzenesulphonyl]benzene acid oxalate] | 32% | 83.3% |  |  |
| CCCCN(CCCC)CCCOc1ccc(S(=O)(=O)c2ccc3ccccc3c2)cc1 [Ex. 127, 2-{4-[3-(di-n-butylamino)propyloxy]benzenesulphonyl}-naphthalene acid oxalate] | 50.7% | 86.2% |  |  |
| CCCCN(CCCC)CCCOc1ccc(S(=O)(=O)c2ccoc2C(C)C)cc1 [Ex. 78, 2-isopropyl-3-{4-[3-(di-n-butylamino)propyloxy]benzenesulphonyl}furan oxalate] | 4% | 59.4% | 90.3% |  |
| CC(C)c1cn2ccccc2c1S(=O)(=O)c1ccc(OCCCNCc2ccccc2)cc1 [Ex. 32, 2-Isopropyl-1-{4-[3-(benzylamino)propyloxy]benzenesulphonyl}indolizine hydrochloride] | 3.6% | 19.4% | 65.9% |  |
| CCCCN(CCCC)CCCCOc1ccc(S(=O)(=O)c2c(C(C)C)cn3ccccc23)cc1 [Ex. 39, 2-Isopropyl-1-{4-[4-(di-n-butylamino)butyloxy]benzenesulphonyl}indolizine] |  | 17.9% | 62.9% |  |
| COc1ccc(CN(C)CCCOc2ccc(S(=O)(=O)c3c(C(C)C)cn4ccccc34)cc2)cc1OC [Ex. 41, 2-Isopropyl-1-[4-{3-[N-methyl-N-(3,4-dimethoxybenzyl)-amino]propyloxy}benzenesulphonyl]indolizine] |  | 5.3% | 26.1% | activity at 0.001 µM: 70.9% |
| CCCCN(CCCC)CCCOc1ccc(S(=O)(=O)c2c(-c3ccccc3)noc2C(C)C)cc1 [Ex. 126, 4-{4-[3-(di-n-butylamino)propyloxy]benzenesulphonyl}-5-isopropyl-3-phenyl-isoxazole] | 10% | 38.7% | 75.8% |  |
| CCc1ccccc1S(=O)(=O)c1ccc(OCCCN(C)CCc2ccc(OC)c(OC)c2)cc1 [Ex. 116, 2-Ethyl-1-[4-{3-[N-methyl-N-(3,4-dimethoxy-β-phenethyl)amino]propyloxy}benzenesulphonyl]benzene acid oxalate] |  | 6% | 66.1% | activity at 0.001 µM: 84.8% |
| COc1ccc(CN(C)CCOc2ccc(S(=O)(=O)c3c(C(C)C)oc4ccccc34)cc2)cc1OC [Ex. 89, 2-Isopropyl-3-[4-{2-[N-methyl-N-(3,4-dimethoxy-benzyl)amino]ethyloxy}benzenesulphonylbenzofuran hemioxalate] |  | 4.7% | 53.3% | activity at 0.001 µM: 83.9% |
| CC(C)c1oc2ccccc2c1S(=O)(=O)c1ccc(OCCCNCCc2ccc3c(c2)OCO3)cc1.O=C(O)C(=O)O [Ex. 95, 2-Isopropyl-3-[4-{3-[N-[3-(1,3-benzodioxolyl)]-β-ethyl]amino]propyloxy}benzenesulphonyl benzofuran acid oxalate] |  |  |  | % of the maximum contractional effect (10^-6 M, 1 µM): 13.6%; % of the maximum contractional effect (10^-7 M, 0.1 µM): 50.6%; % of the maximum contractional effect (10^-8 M, 0.01 µM): 81.4% |
| CCCCN(CCCC)CCCOc1ccc(S(=O)(=O)c2ccccc2CC)cc1 [Ex. 117, 2-Ethyl-1-{4-[3-(di-n-butylamino)propyloxy]benzenesulphonyl}benzene acid oxalate] | 4.2% | 43.4% | 85.1% |  |
| CCCN(CCC)CCCOc1ccc(S(=O)(=O)c2c(C)cn3ccccc23)cc1 [Ex. 5, 2-Methyl-1-{4-[3-(di-n-propylamino)propyloxy]benzenesulphonyl}indolizine] | 48.9% |  |  |  |
| COc1ccc(CCN(C)CCCOc2ccc(S(=O)(=O)c3ccc4ccccc4c3)cc2)cc1OC [Ex. 103, 2-[4-{3-[N-methyl-N-(3,4-dimethoxy-β-phenethyl)amino]propyloxy}benzenesulphonyl]-naphthalene acid oxalate] | 16.8% | 62.8% | 83.3% |  |
| CC(C)c1cn2ccccc2c1S(=O)(=O)c1ccc(OCCCNCCc2ccccc2)cc1 [Ex. 31, 2-Isopropyl-1-{4-[3-(β-phenethylamino)propyloxy]benzenesulphonyl}indolizine hydrochloride] | 16.8% | 31.8% | 73.9% |  |
